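Method: 48-hour compound exposure of cells in 96-well plates, five concentrations, linear interpolation of endpoints. TGI denotes the concentration required for complete inhibition of growth.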
Assays:
Test in all cases: growth of human tumour cells (NCI), 48 h
[1] = test system: HT29 colon
[2] = test system: IGROV1 ovarian
[3] = test system: U251 CNS
[4] = test system: DU-145 prostate
[5] = test system: T-47D breast
[6] = test system: MDA-N
[7] = test system: HOP-62 NSCLC
[8] = test system: LOX IMVI melanoma
[9] = test system: SNB-19 CNS
[10] = test system: TK-10 renal
[11] = test system: SF-295 CNS
[12] = test system: 786-0 renal
[13] = test system: HOP-92 NSCLC
[14] = test system: SNB-75 CNS
[15] = test system: A498 renal
[16] = test system: SK-OV-3 ovarian
[17] = test system: OVCAR-3 ovarian
[18] = test system: UACC-257 melanoma
[19] = test system: KM12 colon

Row | Structure (SMILES) | TGI [1] | TGI [2] | TGI [3] | TGI [4] | TGI [5] | TGI [6] | TGI [7] | TGI [8] | TGI [9] | TGI [10] | TGI [11] | TGI [12] | TGI [13] | TGI [14] | TGI [15] | TGI [16] | TGI [17] | TGI [18] | TGI [19]
1 | CNC(=O)CN(C)C(=O)CCC(=O)N(C)C | > 100 µM | > 100 µM | > 100 µM | > 100 µM | > 100 µM | > 100 µM | > 100 µM | > 100 µM | > 100 µM | > 100 µM | > 100 µM | > 100 µM | > 100 µM | > 100 µM | > 100 µM | > 100 µM | > 100 µM | > 100 µM | > 100 µM
2 | COC(=O)C1C2CC3C1C3C2C(=O)OC (centres undefined) | > 100 µM | > 100 µM | > 100 µM | > 100 µM | > 100 µM | > 100 µM | > 100 µM | > 100 µM | > 100 µM | > 100 µM | > 100 µM | > 100 µM | > 100 µM | > 100 µM | > 100 µM | > 100 µM | > 100 µM | > 100 µM | > 100 µM
3 | O=C1C(Cl)C(c2cc3cc(Br)ccc3nc2Cl)N1c1ccc(Cl)cc1 (centres undefined) | 19.6 µM | 7.17 µM |  | 19.7 µM | 23.8 µM | 15.9 µM | > 25 µM | 3.38 µM | > 25 µM | 13.3 µM | > 25 µM | 9.22 µM | 7.2 µM | 19.5 µM | > 25 µM | > 25 µM | 13.8 µM | 12.6 µM | > 25 µM
4 | Nc1ncnc2c1ncn2[C@H]1CC[C@@H](NO)C1 |  | > 100 µM | > 100 µM | > 100 µM | > 100 µM | > 100 µM | > 100 µM | > 100 µM | > 100 µM | > 100 µM | > 100 µM | > 100 µM | > 100 µM | > 100 µM | > 100 µM | > 100 µM | > 100 µM | > 100 µM | > 100 µM
5 | CSc1nc(SC)c2ncn(C3CC(Oc4ccc(C)cc4)C(COc4ccc(C)cc4)O3)c2n1 (centres undefined) | > 100 µM | > 100 µM | > 100 µM | > 100 µM | > 100 µM | > 100 µM | > 100 µM | > 100 µM | > 100 µM | > 100 µM | > 100 µM | > 100 µM | > 100 µM | > 100 µM | > 100 µM | > 100 µM | > 100 µM | > 100 µM | > 100 µM
6 | CC(=N\N=C\c1ccccn1)/C(C)=N/N=C(C)/C(C)=N/N=C/c1ccccn1 | > 100 µM | > 100 µM | > 100 µM | > 100 µM | > 100 µM | > 100 µM | > 100 µM | > 100 µM | > 100 µM | > 100 µM | > 100 µM | > 100 µM | > 100 µM | > 100 µM | > 100 µM | > 100 µM | > 100 µM | > 100 µM | > 100 µM
7 | C/C(=N\NC(=S)N(C)CCN(C)C(=S)N/N=C(\C)c1ccccn1)c1ccccn1 | 24.4 µM | 3.96 µM | 18.9 µM | 13.1 µM | 19 µM | 19.3 µM | 19 µM | 22.6 µM | 16.6 µM | 7.75 µM | 19.6 µM | > 100 µM | 16.4 µM | 7.59 µM | 3 µM | 20.1 µM | 9.53 µM | 11 µM | 14.3 µM
8 | NS(=O)(=O)c1ccc(Nc2c3ccccc3nc3c(C(=O)NCCO)cccc23)cc1 | 0.302 µM | 0.45 µM | 0.205 µM | 0.586 µM | 0.169 µM | 0.412 µM | 0.443 µM | 0.267 µM | 0.355 µM | 0.726 µM | 0.605 µM | 0.283 µM | 0.618 µM |  | 0.229 µM | 0.649 µM | 0.318 µM | 0.315 µM | 0.283 µM
9 | Cc1ccc2c(=O)cc(-c3ccsc3)[nH]c2n1 | > 100 µM | > 100 µM | > 55.2 µM | > 89.8 µM | > 74.9 µM | 2.09 µM | > 100 µM | > 56.6 µM | 86.7 µM | > 100 µM | 23.6 µM | > 100 µM | > 100 µM | 35 µM | > 100 µM | 72.6 µM | > 100 µM | > 100 µM | > 100 µM
10 | O=S(=O)(c1ccccc1)C1(CCC2OCCO2)C=CC2(CC1)OCCO2 (centres undefined) | > 100 µM | > 100 µM | > 100 µM | > 100 µM | > 100 µM | > 100 µM | > 100 µM |  | > 100 µM | > 100 µM | > 100 µM | > 100 µM | > 100 µM | > 100 µM | > 100 µM | > 100 µM | > 100 µM | > 100 µM | 
11 | COC(=O)/C=C\C(C#N)(C#N)N=Cc1ccc(Br)s1 |  | 31.9 µM | 38 µM | 24.5 µM | > 30.6 µM | 24.4 µM | 31.8 µM | 7.39 µM | 21.9 µM | 6.65 µM | 33 µM | 12.9 µM | 4.67 µM | 29.4 µM | 31.5 µM | 33.4 µM | 23.3 µM | 28.6 µM | 32.6 µM
12 | Cc1ccc2[nH]c3c(c2c1)C1CCC(C(C)(C)C)CC1C1C(=O)N(c2ccc4c(c2)OCO4)C(=O)C31 (centres undefined) | 16.2 µM | 6.68 µM | 4.77 µM | 9.88 µM | 3.94 µM | 17.6 µM | 4.24 µM | 6.25 µM | 7.97 µM | 4.32 µM | 9.85 µM | 3 µM | 6.22 µM |  | 3.48 µM | 6.86 µM | 3.08 µM | 23.7 µM | 19 µM
13 | CC(=O)N1CC(=O)N2C(=O)/C(=C/c3ccc(Cl)cc3)N=C12 | > 100 µM |  | > 100 µM | > 100 µM | > 100 µM | > 100 µM | > 100 µM | > 100 µM | > 100 µM | > 100 µM | > 100 µM | > 100 µM | > 100 µM | > 100 µM | > 100 µM | > 100 µM | > 100 µM | > 100 µM | > 100 µM

Source: PubChem BioAssay (NCI)
